Legend:
Assay in all cases: relative viability (nuclei count vs DMSO), 5 days (fraction); higher = more cells survive
[1] = compound: CN1CCN(c2ccc3nc(-c4c(N)c5c(F)cccc5[nH]c4=O)[nH]c3c2)CC1 [Dovitinib] + Nc1ncn([C@H]2C[C@H](O)[C@@H](CO)O2)c(=O)n1 [Decitabine] (partner 2 µM)
Summary of the method: (§1)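 Five library-drug doses in √10 steps were combined with a fixed anchor-drug dose, or a single drug was given alone, by pin tool to lung cancer cell lines in 1536-well plates the day after seeding. Nuclei were stained and counted after 5 days. Relative viability is the nuclei count in treated wells over that in vehicle wells, taken as the median of duplicate plates.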

[2] = compound: CN1CCN(c2ccc3nc(-c4c(N)c5c(F)cccc5[nH]c4=O)[nH]c3c2)CC1 [Dovitinib] + CS(=O)(=O)CCNCc1ccc(-c2ccc3ncnc(Nc4ccc(OCc5cccc(F)c5)c(Cl)c4)c3c2)o1 [Lapatinib] (partner 2 µM)
Summary of the method: as §1

[3] = compound: CN1CCN(c2ccc3nc(-c4c(N)c5c(F)cccc5[nH]c4=O)[nH]c3c2)CC1 [Dovitinib] + Cc1cc(Nc2cc(N3CCN(C)CC3)nc(Sc3ccc(NC(=O)C4CC4)cc3)n2)n[nH]1 [Tozasertib] (partner 0.1 µM)
Summary of the method: as §1

[4] = compound: CN1CCN(c2ccc3nc(-c4c(N)c5c(F)cccc5[nH]c4=O)[nH]c3c2)CC1 [Dovitinib] + C[C@@H](Oc1cc(-c2cnn(C3CCNCC3)c2)cnc1N)c1c(Cl)ccc(F)c1Cl [Crizotinib] (partner 1 µM)
Summary of the method: as §1

| Cell Line | relative viability ([1]; first compound 0.02 µM) | relative viability ([1]; first compound 0.06325 µM) | relative viability ([1]; first compound 0.2 µM) | relative viability ([1]; first compound 0.6325 µM) | relative viability ([1]; first compound 2 µM) | relative viability ([2]; first compound 0.02 µM) | relative viability ([2]; first compound 0.06325 µM) | relative viability ([2]; first compound 0.2 µM) | relative viability ([2]; first compound 0.6325 µM) | relative viability ([2]; first compound 2 µM) | relative viability ([3]; first compound 0.02 µM) | relative viability ([3]; first compound 0.06325 µM) | relative viability ([3]; first compound 0.2 µM) | relative viability ([3]; first compound 0.6325 µM) | relative viability ([3]; first compound 2 µM) | relative viability ([4]; first compound 0.02 µM) | relative viability ([4]; first compound 0.06325 µM) | relative viability ([4]; first compound 0.2 µM) | relative viability ([4]; first compound 0.6325 µM) | relative viability ([4]; first compound 2 µM) |
| --- | --- | --- | --- | --- | --- | --- | --- | --- | --- | --- | --- | --- | --- | --- | --- | --- | --- | --- | --- | --- |
| PC-3 [JPC-3] | 0.949 | 0.882 | 0.859 | 0.804 | 0.898 | 0.483 | 0.398 | 0.466 | 0.488 | 0.47 | 0.838 | 0.884 | 0.892 | 0.889 | 0.83 | 0.928 | 0.923 | 0.963 | 1.01 | 0.984 |
| PC-14 | 0.21 | 0.224 | 0.241 | 0.217 | 0.22 | 0.296 | 0.336 | 0.308 | 0.309 | 0.279 | 0.542 | 0.649 | 0.684 | 0.644 | 0.643 | 0.815 | 0.906 | 0.865 | 0.862 | 0.893 |
| RERF-LC-KJ | 0.709 | 0.729 | 0.701 | 0.685 | 0.637 | 0.94 | 0.884 | 0.853 | 0.909 | 0.825 | 0.556 | 0.369 | 0.516 | 0.518 | 0.511 | 0.796 | 0.817 | 0.86 | 0.815 | 0.861 |
| SK-LU-1 | 0.614 | 0.636 | 0.662 | 0.758 | 0.572 | 0.735 | 0.927 | 0.875 | 0.814 | 0.823 | 0.305 | 0.375 | 0.33 | 0.325 | 0.409 | 0.835 | 0.984 | 0.86 | 0.958 | 0.974 |
| SK-MES-1 | 0.358 | 0.404 | 0.381 | 0.414 | 0.348 | 0.438 | 0.47 | 0.482 | 0.524 | 0.437 | 0.861 | 0.934 | 0.893 | 0.835 | 0.983 | 1.04 | 0.957 | 0.932 | 1.01 | 0.954 |
| SW 1573 | 0.479 | 0.516 | 0.612 | 0.397 | 0.629 | 1.18 | 1.06 | 1.05 | 1.17 | 1.16 | 0.183 | 0.175 | 0.163 | 0.144 | 0.164 | 0.773 | 0.809 | 0.805 | 0.749 | 0.804 |
| UMC-11 | 0.614 | 0.589 | 0.64 | 0.575 | 0.715 | 1.04 | 1.01 | 0.96 | 0.963 | 0.724 | 0.213 | 0.201 | 0.203 | 0.199 | 0.22 | 0.636 | 0.716 | 0.576 | 0.514 | 0.733 |
